{
  "source": "patent US11878013B2",
  "about": "“Isoquinoline derivative, preparing method thereof, and pharmaceutical composition for preventing or treating autophagy related diseases containing the same as an active ingredient” (Korea Research Institute of Chemical Technology, priority 2021, dated 2024)",
  "key": {"[1]": {"system": "VERO, HFL-1, L929, NIH 3T3, CHO-K1 and HMV-II cell lines", "experiment": "Non-selective general cytotoxicity test", "format": "cell-based", "conditions": "all cell lines, 24 hours", "description": "In this experiment, the cell lines derived from different species, VERO (African green monkey kidney cell line), HFL-1 (human embryonic lung cell line), L929 (mouse fibroblast cell line), NIH 3T3 (mouse embryonic fibroblast cell line), CHO-K1 (Chinese hamster ovary cell line) and HMV-II (human malignant melanoma cell line), were used.\nParticularly, VERO, HFL-1, L929 and NIH 3T3 cell lines were cultured in DMEM, CHO-K1 was cultured in RPMI1640 medium, and HMV-II was cultured in DME/F-12 medium. 10% FBS (Fetal Bovine Serum) and 100 μg/mL of antibiotics were added to each medium. The cells were acclimatized and cultured in a humidified 37° C. 5% CO2 incubator, washed with PBS (phosphate buffer solution) at the time of growth that occupies 70-80% of the culture dish every 2-3 days, and then subcultured by treating with Trypsin-EDTA (Gibco, USA).\nThe cells used in this Experimental Example were aliquoted into a 96-well culture plate at the density of 15,000-25,000 cells/well, and then acclimatized and cultured in a humidified 37° C. […] The cell viability was measured according to the standard method using a Cyto XTM cell viability assay kit ([…]). […] 5% CO2 incubator, followed by measuring the absorbance at 450 nm. The survival rate was measured by calculating the ratio of the absorbance changed compared to the absorbance measured in the group treated with DMSO alone."}, "[2]": {"system": "artificial corneal tissue", "experiment": "Ocular toxicity test on artificial cornea (MTT)", "format": "cell-based", "conditions": "up to 50 μM, the maximum concentration", "description": "In order to evaluate the ocular toxicity that may be induced upon ocular exposure of the compound of Example 1 of the present invention, the following experiment was performed using the cultured artificial cornea.\nThe artificial corneal tissue cultured in agarose medium was transferred to a 12-well cell culture plate, to which culture medium was added, followed by culture in a humidified 37° C. 5% CO2 incubator for one day. The medium on the artificial cornea culture surface was eliminated, and 30 μl of the compound of Example 1 of the present invention diluted with PBS was evenly applied to the cornea surface, followed by incubation at room temperature for 30 minutes. The cell surface was washed twice with 10 ml of PBS, and a fresh culture medium was added, followed by incubation in a humidified 37° C. 5% CO2 incubator for 30 minutes. In order to measure the viability of the cornea, the artificial cornea was transferred to a 12-well plate containing 2 ml of MTT solution (1 mg/ml), followed by culture for 3 hours. The stained artificial corneal tissue was taken and transferred to a tube containing 1.5 ml of isopropanol, and then incubated with shaking to decolorize. The solution was centrifuged at 13,000 rpm for 5 minutes, 100 μl of the supernatant was transferred to each well of a 96-well plate, and absorbance was measured at 570 nm."}, "hERG channel protein": {"target": "T1, hERG channel protein (Homo sapiens, UniProt Q12809)", "T1 construct": "expressed in transfected cells; host or cells: HEK-293", "T1 sequence (Q12809 whole entry)": "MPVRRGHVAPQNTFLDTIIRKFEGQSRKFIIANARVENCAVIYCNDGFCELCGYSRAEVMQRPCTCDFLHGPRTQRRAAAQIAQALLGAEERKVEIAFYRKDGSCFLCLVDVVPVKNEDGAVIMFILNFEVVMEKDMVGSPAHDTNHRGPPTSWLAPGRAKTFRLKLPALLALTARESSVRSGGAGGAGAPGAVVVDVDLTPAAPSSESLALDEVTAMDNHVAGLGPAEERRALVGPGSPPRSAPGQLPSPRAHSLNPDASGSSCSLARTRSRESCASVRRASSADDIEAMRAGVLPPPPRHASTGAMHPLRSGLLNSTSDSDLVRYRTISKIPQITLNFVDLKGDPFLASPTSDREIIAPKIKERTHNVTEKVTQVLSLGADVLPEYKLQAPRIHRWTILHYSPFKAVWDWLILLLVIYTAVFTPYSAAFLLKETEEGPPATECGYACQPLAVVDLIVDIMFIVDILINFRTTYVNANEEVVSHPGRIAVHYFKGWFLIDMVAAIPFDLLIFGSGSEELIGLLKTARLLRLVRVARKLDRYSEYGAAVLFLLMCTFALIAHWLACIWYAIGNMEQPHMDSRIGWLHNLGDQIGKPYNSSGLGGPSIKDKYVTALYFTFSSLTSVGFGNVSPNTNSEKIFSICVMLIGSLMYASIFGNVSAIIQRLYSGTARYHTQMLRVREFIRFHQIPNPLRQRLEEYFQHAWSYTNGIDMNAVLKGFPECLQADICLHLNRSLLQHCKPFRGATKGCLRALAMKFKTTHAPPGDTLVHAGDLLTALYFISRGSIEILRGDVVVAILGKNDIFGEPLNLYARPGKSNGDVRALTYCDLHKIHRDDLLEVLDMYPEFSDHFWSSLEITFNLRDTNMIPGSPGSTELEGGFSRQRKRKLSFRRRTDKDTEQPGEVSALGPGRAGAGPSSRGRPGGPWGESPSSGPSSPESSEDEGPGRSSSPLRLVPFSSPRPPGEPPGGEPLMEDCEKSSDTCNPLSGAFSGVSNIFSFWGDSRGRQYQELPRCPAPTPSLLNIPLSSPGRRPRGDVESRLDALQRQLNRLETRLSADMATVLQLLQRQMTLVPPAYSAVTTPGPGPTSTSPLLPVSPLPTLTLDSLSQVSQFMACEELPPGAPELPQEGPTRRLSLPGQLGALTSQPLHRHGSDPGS", "experiment": "hERG ligand binding test (fluorescence polarization)", "conditions": "at 10 μM", "description": "In order to evaluate the possibility of inducing cardiotoxicity of the compound of Example 1 of the present invention in vivo, the inhibitory potential to the hERG (human ether-a-go-go related gene) K^+ channel protein, known as a main cause of arrhythmias, was tested.\nFirst, a ligand binding test was performed to evaluate the binding force of the compound of Example 1 binding to the hERG channel protein in vitro. A biological membrane containing the hERG channel protein was aliquoted in a 384-black well plate (10 μl/well) at room temperature, and DMSO, E-4031 (positive control), and the compound of Example 1 prepared to be 4 times the final test concentration were added thereto (5 μl/well). A tracer material with a fluorescent material attached to astemizole, known as a selective binding substance to the hERG channel protein, was dispensed into a mixture of the two solutions (5 μl/well), and then incubated for 2 hours at room temperature where light was blocked. In order to excite the tracer material included in the reaction solution, the light of 530 nm was irradiated and the light of 585 nm returned back was measured by the polarization method. […] The binding force of the test material to the hERG protein was expressed as the inhibition rate (%) compared to the group treated with DMSO."}, "artificial skin tissue": {"system": "artificial skin tissue", "experiment": "Skin toxicity test on artificial skin (MTT)", "format": "cell-based", "description": "In order to evaluate the skin toxicity that may be induced upon skin contact of the compound of Example 1 of the present invention, the following experiment was performed using the artificial skin prepared with a structure similar to the skin of a living body.\nParticularly, the experiment was performed according to OECD Guideline for the Testing of Chemicals No. 439, OECD (2010) and the method recommended by the manufacturer (Tegoscience).\nFirst, the artificial skin cultured in agarose medium was transferred to a 12-well cell culture plate, to which culture medium was added, followed by culture in a humidified 37° C. 5% CO2 incubator for one day. The medium on the artificial skin culture surface was eliminated, and 90 μl of the compound of Example 1 of the present invention diluted with PBS was evenly applied to the skin surface, followed by incubation at room temperature for 15 minutes. The cell surface was washed twice with 10 ml of PBS, and a fresh culture medium was added, followed by incubation in a humidified 37° C. 5% CO2 incubator for 42 hours. In order to measure the viability of the skin, the artificial skin was transferred to a 12-well plate containing 2 ml of MTT solution (0.3 mg/ml), followed by culture for 3 hours. The stained artificial skin tissue was taken and transferred to a tube containing 500 μl of 0.04 N-isopropanol, and then incubated with shaking for 4 hours to decolorize. The solution was centrifuged at 13,000 rpm for 5 minutes, 100 μl of the supernatant was transferred to each well of a 96-well plate, and absorbance was measured at 570 nm."}},
  "data": [
    {"compound": "[O-][S+](c1ccc(F)cc1)c1nccc2ccccc12", "note": "(stereo not drawn) [Example 1, 1-((4-Fluorophenyl)Sulfinyl)Isoquinoline]", "values": [
      {"measurement": "cytotoxicity", "setting": "[1]; maximum test concentration of 100 μM", "result": "less than 50%"},
      {"measurement": "toxicity (cell viability)", "setting": "[1]; up to 10 μM", "result": "no significant toxicity"},
      {"measurement": "survival rate of artificial cornea", "setting": "[2]", "result": "no significant decrease of the survival rate"},
      {"measurement": "inhibition of the binding of the hERG channel protein", "setting": "hERG channel protein", "result": "about 10%"},
      {"measurement": "survival rate of artificial skin", "setting": "artificial skin tissue; 50 μM, the maximum concentration", "result": "slight decrease of the survival rate"},
      {"measurement": "survival rate of artificial skin", "setting": "artificial skin tissue; up to 20 μM", "result": "no significant decrease of the survival rate"}
    ]}
  ]
}
